{"source": "paper PMC6270814", "about": "“Effects of Ursolic Acid Derivatives on Caco-2 Cells and Their Alleviating Role in Streptozocin-Induced Type 2 Diabetic Rats” (Molecules, 2014)", "key": {"Caco-2 cells": {"test_system": "Caco-2 cells", "test": "2-NBDG glucose uptake by Caco-2 cell monolayers, Na+-independent (sodium free buffer)", "assay_type": "cell-based, Human", "conditions": "100 μM compound, Na+-independent (KCl/K2HPO4 buffer)", "method": "Caco-2 cells, which were derived from human colon adenocarcinoma, were selected for intestinal absorption studies because these cells express the morphological characteristics and most of the functional properties of differentiated small-intestinal enterocytes. Caco-2 cells were seeded on 24-well plates at the density of 2 × 10^5 cells/well. The medium was changed every 1–2 days, and the culture was carried out for 13 days. Then Caco-2 cells were placed in serum-free media for 24 h and then they were washed twice with Hanks’ balanced salt solution (HBSS, pH 7.5, 140 mM NaCl, 5 mM KCl, 1.2 mM Na2HPO4, 2 mM CaCl2, 1.2 mM MgSO4, 20 mM HEPES, 0.2% bovine serum albumin) before the uptake studies. When a sodium free buffer was required, NaCl and Na2HPO4 were replaced with equal amounts of KCl and K2HPO4, respectively. After washing, the cells were incubated for 15 min at room temperature in HBSS before the commencement of this experiment. The uptake studies were initiated by adding HBSS containing either control or test solution (100 μM) and […] (100 μM) for 30 min at 37 °C. Glucose uptake was stopped by adding twofold volume of ice-cold PBS and the wells were washed with ice-cold PBS three times. Fluorescent intensity was measured by a Multimodel Plate Reader (Tecan Infinity 200) with the 485 nmex and 535 nmemiss filter set before and after adding 2-NBDG. Then the cells were lysed in 200 μL lysis buffer (10 mM Tris-HCl pH = 7.4, 150 mM NaCl, 1% Triton-x-100, 1 mM EDTA, 0.1% SDS) and supplemented immediately before they were processed with 10 μg/mL PMSF. Cells were allowed to lyse on ice, and then vortexed and sonicated. The lysate was used for protein determination, protein concentrations were determined as described by BCA kit (Boster, Wuhan, China) with bovine serum albumin as standard."}, "SGLT-1": {"test_system": "SGLT-1", "test": "Western blot of SGLT-1 protein expression in Caco-2 cells", "assay_type": "cell-based, Human", "conditions": "100 μM, 6 h", "method": "Caco-2 cells were cultured on 6-well plates at a density of 1 × 10^6 cells/well for 13 days. The cells were placed in serum-free medium for 24 h prior to the treatment. Then UA and its derivatives (100 μM) were added, after 6 h incubation, the cells were immediately washed three times with ice-cold PBS and lysed in 200 μL lysis buffer. Cells were allowed to lyse on ice, and then scraped, vortexed, sonicated and stored at −80 °C for further analysis. Protein concentrations were determined as described and cell lysate was subjected to western blot analysis. Briefly, proteins with same amount were denatured in sample buffer, separated on 8% SDS-PAGE gel, and transferred onto a polyvinylidene diflouride membrane. […] Membranes were then incubated overnight at 4 °C in blocking buffer with antibodies for GLUT-2, SGLT-1 and β-actin (EMD, Millipore, Billerica, MA, USA). Membranes were washed with TBST and incubated 1 h with appropriate secondary antibodies. Revelation was performed by using the enhanced chemiluminescence reagent and blue-light sensitive film. Densitometric analysis of films was performed with a Hewlett-Packard scanner equipped with a transparent adaptor and UN-SCAN-IT software."}, "GLUT-2": {"test_system": "GLUT-2", "test": "Western blot of GLUT-2 protein expression in Caco-2 cells", "assay_type": "cell-based, Human", "conditions": "100 μM, 6 h", "method": "Caco-2 cells were cultured on 6-well plates at a density of 1 × 10^6 cells/well for 13 days. The cells were placed in serum-free medium for 24 h prior to the treatment. Then UA and its derivatives (100 μM) were added, after 6 h incubation, the cells were immediately washed three times with ice-cold PBS and lysed in 200 μL lysis buffer. Cells were allowed to lyse on ice, and then scraped, vortexed, sonicated and stored at −80 °C for further analysis. Protein concentrations were determined as described and cell lysate was subjected to western blot analysis. Briefly, proteins with same amount were denatured in sample buffer, separated on 8% SDS-PAGE gel, and transferred onto a polyvinylidene diflouride membrane. The membranes were blocked for 1 h at 37 °C with 10% defatted milk in Tris-buffered saline (10 mM Tris-HCl, pH 7.5 and 137 mM NaCl) containing 0.05% Tween 20 (TBST). Membranes were then incubated overnight at 4 °C in blocking buffer with antibodies for GLUT-2, SGLT-1 and β-actin (EMD, Millipore, Billerica, MA, USA). Membranes were washed with TBST and incubated 1 h with appropriate secondary antibodies. Revelation was performed by using the enhanced chemiluminescence reagent and blue-light sensitive film. Densitometric analysis of films was performed with a Hewlett-Packard scanner equipped with a transparent adaptor and UN-SCAN-IT software."}, "[1]": {"test_system": "STZ-induced diabetic rats", "test": "Serum biochemical parameters (insulin, total protein, albumin) in STZ-induced diabetic rats", "assay_type": "in vivo, rat", "conditions": "4 weeks, compounds 100 mg/kg, glibenclamide 10 mg/kg", "method": "(§1) Diabetes was induced by a single intraperitoneal injection of streptozotocin (Sigma-Aldrich, St. Louis, MO, USA) at a dose of 65 mg/kg body weight. STZ was dissolved in 0.1 M cold citrate buffer, pH 4.5. Control group were injected with citrate buffer alone. After 7 days for the development of diabetes, plasma glucose levels were determined of each rat. Rats with fasting blood glucose (FBG) range of above 16.7 mmol/L were considered as DM rats and were used for further study.\n(§2) According to the body weight and plasma glucose levels the rats were divided randomly into seven groups with six rats each and treated as follows: • Group I: Normal rats treated with 0.5% CMC-Na (2 mL/200 g body weight). • Group II: Diabetic rats treated with 0.5% CMC-Na. • Group III: Diabetic rats treated with 10 mg/kg of glibenclamide. • Group IV: Diabetic rats treated with 100 mg/kg of compound 1 (UA). • Group V: Diabetic rats treated with 100 mg/kg of compound 10. • Group VI: Diabetic rats treated with 100 mg/kg of compound 11. • Group VII: Diabetic rats treated with 100 mg/kg of compound 12.\n(§3) The treatment was continued daily for 28 days. Blood glucose levels and body weight were measured every week to ascertain the status of diabetes. After 4 weeks of treatment, the animals were fasted for 12 h and sacrificed by cervical dislocation under mild anaesthetization, blood was collected into heparinized tubes and centrifuged at 2,000 rpm for 10 min. Livers and kidneys were removed, washed and homogenized in ice-cold normal saline. This homogenates were centrifuged at 3,000 rpm for 10 min at 4 °C, and the supernatants were collected for the estimate of antioxidant markers.\n(§4) Fasting blood glucose levels were estimated on days 0, 7, 14, 28 with the single touch glucometer (Life Scan, Johnson & Johnson Company, New Brunswick, NJ, USA). Serum insulin level was measured by use of a commercial immunoassay kit by enzyme linked immunosorbent assay (Uscn. Life Science Inc., Wuhan, China). Serum total protein, albumin, triglycerides (TG), total cholesterol (TC), high-density lipoprotein cholesterol (HDL-C), and low-density lipoprotein cholesterol (LDL-C) were measured with an automatic biochemical analyzer (Sinnowa D240, Nanjing, China)."}, "[2]": {"test_system": "STZ-induced diabetic rats", "test": "Body weight and daily food intake of STZ-induced diabetic rats", "assay_type": "in vivo, rat", "method": "as §1, §2, §3"}, "[3]": {"test_system": "STZ-induced diabetic rats", "test": "Serum lipid profile (TG, TC, LDL-C, HDL-C) in STZ-induced diabetic rats", "assay_type": "in vivo, rat", "conditions": "4 weeks, compounds 100 mg/kg, glibenclamide 10 mg/kg", "method": "as §1, §2, §3, §4"}}}
{"smiles": "CCC(=O)O[C@H]1CC[C@@]2(C)C(CC[C@]3(C)C2CC=C2C4[C@@H](C)[C@H](C)CC[C@]4(C(=O)O)CC[C@]23C)C1(C)C", "note": "(stereo partly shown) [Compound 10]", "values": [{"measurement": "glucose uptake, % of the control value (Na+-independent)", "setting": "Caco-2 cells", "result": "70 % of the control value"}, {"measurement": "effect on protein expression of SGLT-1", "setting": "SGLT-1", "result": "significantly reduce"}, {"measurement": "effect on expression of protein GLUT-2", "setting": "GLUT-2", "result": "significant effects on reducing"}, {"measurement": "serum albumin level vs diabetic control", "setting": "[1]", "result": "increased significantly"}, {"measurement": "serum insulin level vs diabetic control", "setting": "[1]", "result": "increased significantly"}, {"measurement": "serum total protein level vs diabetic control", "setting": "[1]", "result": "increased significantly"}, {"measurement": "daily food intake vs untreated diabetic rats", "setting": "[2]; compounds 100 mg/kg, glibenclamide 10 mg/kg, oral", "result": "reduce daily food intake significantly"}, {"measurement": "body weight vs diabetic control", "setting": "[2]; end of the treatment period, 100 mg/kg", "result": "significant increase"}, {"measurement": "serum TC level vs diabetic control", "setting": "[3]", "result": "significantly decreased"}, {"measurement": "serum TG level vs diabetic control", "setting": "[3]", "result": "significantly decreased"}]}
